Like-named read-outs stand apart in the source and are kept apart here.
How the values were obtained:
[1] = test system: panel of human tumor lines (drug-susceptible cell lines); assay: Antiproliferative assay, methylene blue staining; assay type: cell-based; details: 120 h, 5 days incubation
Text: (§1) The following cell lines are obtained from the American Type Culture Collection (ATCC, Rockville, Md., USA): human colon carcinomas HCT-15 (CCL 225) and HCT-116 (CCL 247), human lung adenocarcinoma A549 (CCL 185), human large cell carcinoma NCI-H460 (HTB 177), estrogen-independent breast carcinoma MDA-MB-231 ([…]), prostate cancer cell line Du 145 (HTB 81). The human KB-31 (drug-sensitive) and KB-8511 (multidrug-resistant, Pgp170 overexpressing) epidermoid carcinoma cells are obtained from Dr. R. M. Baker, Roswell Park Memorial Institute (Buffalo, N.Y., USA) and have been previously described (Akiyam S, et al. Somatic Cell Molec Genetics 1985;11:117-126 and Fojo A, et al., Cancer Res. […];45:3002-3007). The human metastatic prostate carcinoma PC-3M is obtained from Dr. I. J. Fidler (MD Anderson Cancer Center, Houston, Tex., USA). The estrogen-dependent human breast carcinoma cell line MCF-7/ADR (multidrug resistant) is a subline of the MCF-7 cell line (ATCC HTB 22) and is obtained from Dr. D. Fabbro (Novartis Pharma AG, Basel, Switzerland) and has been previously described (Blobe G C, et al. J. Biol. Chem. 1993; 268:658-664).
For the antiproliferative assays, cells are seeded at 1.5×10^3/well into 96-well microtiter plates and incubated overnight. Compounds are added in serial dilutions on day 1. The plates are than incubated for additional 5 days. This allowed the control cultures to undergo at least 3 cell divisions. After incubation the cells are fixed with 3.3% v/v glutaraldehyde, washed with water and stained with 0.05% w/v methylene blue. After washing, the dye is eluted with 3% v/v HCl and the optical density measured at 665 nm with a SpectraMax 340 (Bucherer, Basel, Switzerland). IC50 values are determined by a computerized system (SoftPro, Bucherer, Basel, Switzerland) using the formula (OD test—OD start)/(OD control—OD start)×100. IC50 is defined as the drug concentration which leads to 50% of cells per well compared to control cultures (100%) at the end of the incubation period.

[2] = test system: MCF-7/ADR cells (multidrug resistant); assay: Antiproliferative assay, methylene blue staining; assay type: cell-based, human
Text: as §1, with “The estrogen-dependent human breast carcinoma cell line MCF-7/ADR (multidrug resistant) is a subline of the MCF-7 cell line (ATCC HTB 22) and is obtained from Dr. D. Fabbro (Novartis Pharma AG, Basel, Switzerland) and has been previously described (Blobe G C, et al. J. Biol. Chem. 1993; 268:658-664).” left out
For the antiproliferative assays, cells are seeded at 1.5×10^3/well into 96-well microtiter plates and incubated overnight. […] After washing, the dye is eluted with 3% v/v HCl and the optical density measured at 665 nm with a SpectraMax 340 (Bucherer, Basel, Switzerland). IC50 values are determined by a computerized system (SoftPro, Bucherer, Basel, Switzerland) using the formula (OD test—OD start)/(OD control—OD start)×100. […]

[3] = Toxicity in non-tumor bearing naive nude mice (body weight); assay type: in vivo; details: for body weight change: naive mice
Description: To assess toxicity of discodernolide on non-tumor bearing animals, four groups of 8 naive nude mice are dosed with the compound, iv, once (5 mg/kg, 7.5 mg/kg, 10 mg/kg, or 15 mg/kg). The control group is dosed with the vehicle alone (16.7% Cremophor EL, 8.3% ethanol and 75% D5W). Body weights are recorded once weekly.

[4] = test system: A549 cells; assay: Antiproliferative assay (MTS); assay type: cell-based, human; details: 72 h exposure, two independent experiments, read-out: IC50 cell proliferation
Description: A549, a human non-small cell lung carcinoma and MDA-MB-435, a human breast carcinoma, used in this study are obtained from the American Type Culture Collection (ATCC, Rockville, Md., USA). MDA-MB-435 cells are maintained in MEM containing 10% FBS, 1% sodium pyruvate, 1% MEM non-essential amino acids, and 15 mM HEPES (pH=7.4). A549 cells are maintained in RPMI 1640 containing 10% FBS. 1A9, a single-cell clone of the human ovarian carcinoma cell line A2780 and PTX22, the paclitaxel-resistant subline, used in this stdy are obtained from M. Wartman (Novartis Pharmauticals). 1A9 cells and PTX22 cells are maintained in RPMI 1640 supplemented with 10% FBS. PTX22 maintenance media also contained 15 ng/mL paclitaxel and 5 μg/mL verapamil. Drug is removed from the media for 5-7 days before use in an experiment. All maintenance media contained 100 units/mL penicillin and 100 μg/mL streptomycin.
Cell lines are trypsinized and counted using a Coulter counter. Cells were plated in 96 well plates (190 μL/well) at the following densities: 1,000 cells/well for A549 and 3,000 cells/well for MDA-MB-435. The number of cells plated results in cell densities of 75-90% confluence by the time of harvest. Plates are seeded on day 0. On day 1 test compounds are added to triplicate wells in a final volume of 10 μL media. Initial cell density for each cell line is measured on day 1 by adding 10 μL MTS mixture (see below), incubating for 4 h and recording absorbance at 490 nm (A490). Two or three days after test compound addition, 10 μL/well of MTS mixture is added to the test plates and A490 was read 4 h later. A490 values for wells containing cells are corrected for media absorbance, then normalized to initial density readings to determine percent net growth. Percent net growth is calculated as (A490+drug−A490 initial)/(A490—drug—A490 initial). Graphs of percent net growth as a function of compound concentration are used to calculate concentrations resulting in 50% growth inhibition (IC50). MTS mixture is prepared fresh on day of addition to cell plates at a ratio of 10 μL of a 0.92 mg/mL solution of phenazine methosulfate (PMS) to 190 μL of a 2 mg/mL solution of MTS (3-(4,5-dimethylthiazol-2-yl)-5-(3-carboxymethoxyphenyl)-2-(4-sulfophenyl)-2H-tetrazolium, inner salt). PMS and MTS solutions are prepared in buffered saline containing 0.2 g/L KCl, 8.0 g/L NaCl, 0.2 g/L KH2PO4, 1.15 g/L Na2HPO4, 133 mg/L CaCl2.2H2O, 100 mg/L MgCl2.6H2O, (pH=7.35) and stored as foil-wrapped aliquots at −20° C. Test compounds are prepared as stock solutions in DMSO. Test compound dilutions are made in 2% DMSO/cell maintenance media and diluted into assay plates to give 0.1% DMSO final in all wells.

[5] = test system: 1A9PTX22 cell line; details: cited from earlier work

Compound | IC50 [1] [nM] | potency compared with paclitaxel [2] | body weight lost ([3]; naive athymic nude mice, single injections, one week after dosing) | body weight change ([3]; single iv 5 mg/kg, one week after dosing) | body weight change ([3]; single iv 5 mg/kg, three weeks after dosing) | body weight change ([3]; single iv 5 mg/kg, two weeks after dosing) | body weight change ([3]; single iv 7.5 mg/kg, one week after dosing) | body weight change ([3]; single iv 7.5 mg/kg, three weeks after dosing) | body weight change ([3]; single iv 7.5 mg/kg, two weeks after dosing) | body weight change ([3]; single iv 10 mg/kg, one week after dosing) [%] | body weight change ([3]; single iv 10 mg/kg, three weeks after dosing) | body weight change ([3]; single iv 10 mg/kg, two weeks after dosing) | body weight change ([3]; single iv 15 mg/kg, one week after dosing) [%] | body weight change ([3]; single iv 15 mg/kg, three weeks after dosing) | body weight change ([3]; single iv 15 mg/kg, two weeks after dosing) [%] | IC50 [4] [nM] | IC50 ([4]; Homo sapiens, A549, 72 h) [nM] | fold less sensitive than 1A9 (reported) ([5]; PTX-22 subline) | fold resistance of 1A9PTX22 versus parental 1A9 ([5]; in vitro, Giannakakou et al. 1997) [fold]
C=C/C=C\[C@H](C)[C@H](OC(N)=O)[C@@H](C)[C@H](O)[C@@H](C)C/C(C)=C\[C@H](C)[C@@H](O)[C@@H](C)/C=C\[C@@H](O)C[C@@H]1OC(=O)[C@H](C)[C@@H](O)[C@H]1C [discodermolide, (+)-Discodermolide] | 2 to 24 | more potent than paclitaxel | no more than 4% | +8.7% | +9.4% | +9.4% | +1.2% | +7.7% | +3.2% | −1.2 | +5.6% | +1.2% | −4.1 | +5.90% | −0.4 | 60 | 45 |  | 
CC(=O)O[C@H]1C(=O)[C@@]2(C)[C@H]([C@H](OC(=O)c3ccccc3)[C@]3(O)C[C@H](OC(=O)[C@H](O)[C@@H](NC(=O)c4ccccc4)c4ccccc4)C(C)=C1C3(C)C)[C@]1(OC(C)=O)CO[C@@H]1C[C@@H]2O [paclitaxel, reference compound] |  |  |  |  |  |  |  |  |  |  |  |  |  |  |  |  |  | 20-30 fold | 24

Source: patent US6774143B1, “Method for treating cells resistant to antineoplastic agents” (Novartis AG, priority 2003, dated 2004)
